# Patent US20100267561A1, “HERBICIDAL PYRIDAZINONE DERIVATIVES” (priority 2007, published 2010)
# Key:
# Type in all cases: in vivo
# [1] = test system: johnsongrass (Sorghum halepense); experiment: Test B pre-/postemergence plant response
# Outline: (§1)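 Visual scoring from 0 (no effect) to 100 (complete control) against untreated controls was done 13 to 15 days after greenhouse treatment. Chemicals were formulated in a surfactant-containing non-phytotoxic solvent and applied to soil preemergence or to 1- to 4-leaf (2-18 cm) plants postemergence.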
# [2] = test system: surinam grass (Brachiaria decumbens); experiment: Test B pre-/postemergence plant response
# Outline: as §1
# [3] = test system: annual bluegrass (Poa annua); experiment: Test C pre-/postemergence plant response; settings: Preemergence
# Description: (§2) Seeds of plant species selected from annual bluegrass (Poa annua), blackgrass (Alopecurus myosuroides), canola (Brassica rapa), downy bromegrass (Bromus tectorum), green foxtail (Setaria viridis), Italian ryegrass (Lolium multiflorum), canarygrass (Phalaris minor), pigweed (Amaranthus retroflexus), spring barley (Hordeum vulgare), spring wheat (Triticum aestivum), wild mustard (Sinapis arvensis), wild oat (Avena fatua), windgrass (Apera spica-venti), winter barley (Hordeum vulgare), and winter wheat (Triticum aestivum) were planted and treated preemergence with test chemicals formulated in a non-phytotoxic solvent mixture which included a surfactant. At the same time, plants selected from these crop and weed species were treated with postemergence applications of some of the test chemicals formulated in the same manner. Plants ranged in height from 2 to 18 cm (1- to 4-leaf stage) for postemergence treatments.
# (§3) Treated plants and controls were maintained in a controlled growth environment for 15 to 25 days after which time all species were compared to controls and visually evaluated. Plant response ratings, summarized in Table C, are based on a scale of 0 to 100 where 0 is no effect and 100 is complete control. A dash (-) response means no test result.
# [4] = test system: blackgrass (Alopecurus myosuroides); experiment: Test C pre-/postemergence plant response; settings: Preemergence
# Description: as §2, §3
# [5] = test system: canarygrass (Phalaris minor); experiment: Test C pre-/postemergence plant response; settings: Preemergence
# Description: as §2, §3
# [6] = test system: downy bromegrass (Bromus tectorum); experiment: Test C pre-/postemergence plant response; settings: Preemergence
# Description: as §2, §3
# [7] = test system: green foxtail (Setaria viridis); experiment: Test C pre-/postemergence plant response; settings: Preemergence
# Description: as §2, §3
# [8] = test system: pigweed (Amaranthus retroflexus); experiment: Test C pre-/postemergence plant response; settings: Preemergence
# Description: as §2, §3
# [9] = test system: spring barley (Hordeum vulgare); experiment: Test C pre-/postemergence plant response; settings: Preemergence
# Description: as §2, §3
# wild oat (Avena fatua) = experiment: Test C pre-/postemergence plant response; settings: Preemergence
# Description: as §2, §3
# [10] = test system: windgrass (Apera spica-venti); experiment: Test C pre-/postemergence plant response; settings: Preemergence
# Description: as §2, §3
# [11] = test system: winter wheat (Triticum aestivum); experiment: Test C pre-/postemergence plant response; settings: Preemergence
# Description: as §2, §3
# [12] = Postemergence, 31 g ai/ha, scale 0 to 100, 0 no effect, 100 complete control
# [13] = Postemergence, 62 g ai/ha, scale 0 to 100
# [14] = Preemergence, 31 g ai/ha, 0 to 100 scale, 0 no effect, 100 complete control
# [15] = Preemergence, 62 g ai/ha, scale 0 to 100
# [16] = Preemergence, 125 g ai/ha, scale 0 to 100
# [17] = Preemergence, 250 g ai/ha, scale 0 to 100
# [18] = 8 g ai/ha, postemergence, 0-100 scale
# [19] = Postemergence, 16 g ai/ha, scale 0 to 100
# [20] = Postemergence, 62 g ai/ha, scale 0 to 100, 0 no effect, 100 complete control
# [21] = Preemergence, 16 g ai/ha, scale 0 to 100 (0 no effect, 100 complete control)
# [22] = Preemergence, 8 g ai/ha, scale 0 to 100
# [23] = 8 g ai/ha, scale 0 to 100 (0 no effect, 100 complete control)
# [24] = 16 g ai/ha, scale 0 to 100 (0 no effect, 100 complete control)
# [25] = 31 g ai/ha, scale 0 to 100 (0 no effect, 100 complete control)
# [26] = 62 g ai/ha, scale 0 to 100, 0 no effect, 100 complete control
# [27] = 16 g ai/ha, postemergence, 0-100 scale
# [28] = Postemergence, 31 g ai/ha, scale 0 to 100
# [29] = Preemergence, 31 g ai/ha, scale 0 to 100 (0 no effect, 100 complete control)
# [30] = Preemergence, 62 g ai/ha, 0 to 100 scale, 0 no effect, 100 complete control
# [31] = Preemergence, 16 g ai/ha, scale 0 to 100
molecule,measurement,setting,value
4-[3-(4-chlorophenyl)-5-methyl-1H-pyrazol-3-yl]-5-hydroxy-2-methyl-3(2H)-pyridazinone [Compound 3],"Plant response rating, Johnsongrass",[1]; [12],0
same,"Plant response rating, Johnsongrass",[1]; [13],80
same,"Plant response rating, Johnsongrass",[1]; [14],80
same,"Plant response rating, Johnsongrass",[1]; [15],95
same,"Plant response rating, Johnsongrass",[1]; [16],100
same,"Plant response rating, Johnsongrass",[1]; [17],100
same,"Plant response rating, Surinam Grass",[2]; [12],100
same,"Plant response rating, Surinam Grass",[2]; [13],100
same,"Plant response rating, Surinam Grass","[2]; Postemergence, 125 g ai/ha, scale 0 to 100",100
same,"Plant response rating, Surinam Grass","[2]; Postemergence, 250 g ai/ha, scale 0 to 100",100
same,"Plant response rating, Surinam Grass",[2]; [14],100
same,"Plant response rating, Surinam Grass",[2]; [15],100
same,"Plant response rating, Surinam Grass",[2]; [16],100
same,"Plant response rating, Surinam Grass",[2]; [17],100
COC(=O)Oc1cnn(C)c(=O)c1-n1nc(-c2ccc(Cl)cc2)cc1C [Compound 33],Johnsongrass plant response rating,[1]; [18],70
same,"Plant response rating, Johnsongrass",[1]; [19],70
same,"Plant response rating, Johnsongrass",[1]; [12],85
same,"Plant response rating, Johnsongrass",[1]; [20],90
same,"Plant response rating, Johnsongrass",[1]; [21],95
same,"Plant response rating, Johnsongrass",[1]; [14],98
same,"Plant response rating, Johnsongrass",[1]; [15],100
same,Johnsongrass plant response rating,[1]; [22],60
same,Surinam Grass plant response rating,[2]; [18],85
same,"Plant response rating, Surinam Grass",[2]; [19],100
same,"Plant response rating, Surinam Grass",[2]; [20],100
same,"Plant response rating, Surinam Grass",[2]; [21],90
same,"Plant response rating, Surinam Grass",[2]; [14],98
same,"Plant response rating, Surinam Grass",[2]; [15],100
same,Surinam Grass plant response rating,[2]; [22],75
same,"Plant response rating, Bluegrass",[3]; [23],0
same,"Plant response rating, Bluegrass",[3]; [24],0
same,"Plant response rating, Bluegrass",[3]; [25],0
same,"Plant response rating, Bluegrass",[3]; [26],0
same,"Plant response rating, Blackgrass",[4]; [23],0
same,"Plant response rating, Blackgrass",[4]; [24],50
same,"Plant response rating, Blackgrass",[4]; [25],80
same,"Plant response rating, Blackgrass",[4]; [26],100
same,"Plant response rating, Canarygrass",[5]; [23],0
same,"Plant response rating, Canarygrass",[5]; [24],10
same,"Plant response rating, Canarygrass",[5]; [25],65
same,"Plant response rating, Canarygrass",[5]; [26],90
same,"Plant response rating, Bromegrass, Downy",[6]; [23],0
same,"Plant response rating, Bromegrass, Downy",[6]; [24],35
same,"Plant response rating, Bromegrass, Downy",[6]; [25],35
same,"Plant response rating, Bromegrass, Downy",[6]; [26],60
same,"Plant response rating, Foxtail, Green",[7]; [23],15
same,"Plant response rating, Foxtail, Green",[7]; [24],95
same,"Plant response rating, Foxtail, Green",[7]; [25],100
same,"Plant response rating, Foxtail, Green",[7]; [26],100
same,"Plant response rating, Pigweed",[8]; [24],0
same,"Plant response rating, Pigweed",[8]; [25],0
same,"Plant response rating, Pigweed",[8]; [26],0
same,"Plant response rating, Barley, Spring",[9]; [23],0
same,"Plant response rating, Barley, Spring",[9]; [24],0
same,"Plant response rating, Barley, Spring",[9]; [25],10
same,"Plant response rating, Barley, Spring",[9]; [26],25
same,"Plant response rating, Oat, Wild",wild oat (Avena fatua); [23],0
same,"Plant response rating, Oat, Wild",wild oat (Avena fatua); [24],25
same,"Plant response rating, Oat, Wild",wild oat (Avena fatua); [25],60
same,"Plant response rating, Oat, Wild",wild oat (Avena fatua); [26],75
same,"Plant response rating, Windgrass",[10]; [23],0
same,"Plant response rating, Windgrass",[10]; [24],0
same,"Plant response rating, Windgrass",[10]; [26],50
same,"Plant response rating, Wheat, Winter",[11]; [23],0
same,"Plant response rating, Wheat, Winter",[11]; [24],0
same,"Plant response rating, Wheat, Winter",[11]; [25],15
same,"Plant response rating, Wheat, Winter",[11]; [26],40
Cn1ncc(O)c(-c2nn(-c3ccc(Cl)cc3)cc2Br)c1=O [Compound 31],"Plant response rating, Johnsongrass",[1]; [21],60
same,"Plant response rating, Johnsongrass",[1]; [14],75
same,"Plant response rating, Johnsongrass",[1]; [15],75
same,Johnsongrass plant response rating,[1]; [22],55
same,"Plant response rating, Surinam Grass",[2]; [21],80
same,"Plant response rating, Surinam Grass",[2]; [14],100
same,"Plant response rating, Surinam Grass",[2]; [15],100
same,Surinam Grass plant response rating,[2]; [22],80
CCc1cc(-c2ccc(Br)cc2)nn1-c1c(O)cnn(C)c1=O [Compound 61],Johnsongrass plant response rating,[1]; [18],65
same,Johnsongrass plant response rating,[1]; [27],100
same,"Plant response rating, Johnsongrass",[1]; [28],100
same,"Plant response rating, Johnsongrass",[1]; [20],100
same,"Plant response rating, Johnsongrass",[1]; [29],100
same,"Plant response rating, Johnsongrass",[1]; [30],100
same,Johnsongrass plant response rating,[1]; [22],90
same,Johnsongrass plant response rating,[1]; [31],95
same,Surinam Grass plant response rating,[2]; [18],100
same,Surinam Grass plant response rating,[2]; [27],100
same,"Plant response rating, Surinam Grass",[2]; [28],100
same,"Plant response rating, Surinam Grass",[2]; [20],100
same,"Plant response rating, Surinam Grass",[2]; [29],100
same,"Plant response rating, Surinam Grass",[2]; [30],100
same,Surinam Grass plant response rating,[2]; [22],85
same,Surinam Grass plant response rating,[2]; [31],100
CCc1cc(-c2ccc(Cl)cc2)nn1-c1c(OC(=O)C(C)(C)C)cnn(C)c1=O [Compound 40],Johnsongrass plant response rating,[1]; [18],0
same,"Plant response rating, Johnsongrass",[1]; [19],0
same,"Plant response rating, Johnsongrass",[1]; [12],98
same,"Plant response rating, Johnsongrass",[1]; [20],100
same,"Plant response rating, Johnsongrass",[1]; [21],95
same,"Plant response rating, Johnsongrass",[1]; [14],98
same,"Plant response rating, Johnsongrass",[1]; [15],98
same,Johnsongrass plant response rating,[1]; [22],90
same,Surinam Grass plant response rating,[2]; [18],98
same,"Plant response rating, Surinam Grass",[2]; [19],100
same,"Plant response rating, Surinam Grass",[2]; [20],100
same,"Plant response rating, Surinam Grass",[2]; [21],100
same,"Plant response rating, Surinam Grass",[2]; [29],100
same,"Plant response rating, Surinam Grass",[2]; [30],100
same,Surinam Grass plant response rating,[2]; [22],80
